According to patent publication US20120165403A1, “METHODS OF INHIBITING THE ACTIVITY OF HSP90 AND/OR ARYL HYDROCARBON RECEPTOR” (UNIVERSITY OF ROCHESTER, priority 2004, published 2012):

Target: T1, XAP2 (Mus musculus, UniProt O08915)
T1 construct: His tag; made in house; host or cells: TNT rabbit reticulocyte lysate; partly purified on TALON cobalt resin
T1 sequence (O08915 1-330): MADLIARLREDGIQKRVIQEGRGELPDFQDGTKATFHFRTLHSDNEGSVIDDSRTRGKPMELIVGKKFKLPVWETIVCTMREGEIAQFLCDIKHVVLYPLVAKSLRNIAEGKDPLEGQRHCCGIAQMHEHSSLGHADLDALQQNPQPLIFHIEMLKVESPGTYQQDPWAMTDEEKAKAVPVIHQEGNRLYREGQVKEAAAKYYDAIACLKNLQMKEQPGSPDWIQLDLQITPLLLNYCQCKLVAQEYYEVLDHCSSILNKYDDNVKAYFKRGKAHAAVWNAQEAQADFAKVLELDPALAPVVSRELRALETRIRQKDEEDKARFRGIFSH
Experiment: Affinity chromatography on EGCG-conjugated Sepharose, XAP2
Type: binding
Excerpt: Murine AhR and ARNT cDNA (obtained from J. Whitlock and O. Hankinson, respectively) were inserted into pcDNA3 (Invitrogen, Carlsbad, Calif.). Chicken hsp90 constructs (FIG. 5), c90711hsp (wild-type), c90G94D (wild-type point mutant gly94→Asp (Grenert et al., J. Biol. Chem. 272:23843-23850 (1997), which is hereby incorporated by reference in its entirety), c90D92A (wild-type point mutant Asp92→Ala (Sullivan et al., J. Biol. Chem. 268:20373-20379 (1993), which is hereby incorporated by reference in its entirety), c90N221 (wild-type truncation mutant encoding a.a. 221-728 (Sullivan et al., J. Biol. Chem. 268:20373-20379 (1993), which is hereby incorporated by reference in its entirety)), c90N303 (a.a. 303-728) and c90N538 (a.a. 538-728) were kind gifts from Dr. D. Toft (Rochester, Minn.). The C-terminal truncation mutant c900507 (a.a. 1-221) was obtained from Dr. L. Neckers (Rockville, Md.) (Grenert et al., J. Biol. Chem. 272:23843-23850 (1997); Marcu et al., J. Biol. Chem. 275:37181-37186 (2000), which are hereby incorporated by reference in their entirety). Human p23 cDNA was excised from pQE80-p23 (obtained from W. Chan Stockton, Calif.) by sequential digests using the restriction enzymes Sad (3′-end) and BamHI (5′-end) and inserted into the similarly digested pET28a (Novagen, Madison, Wis.). The mouse histidine-tagged XAP2 construct, pET-AIP (Bell et al., J. Biol. Chem. 275:36407-36414 (2000), which is hereby incorporated by reference in its entirety), was a kind gift from Dr. D. Bell (Nottingham, UK). All constructs are in the T7 orientation with the exception of c900507, which is driven by an SP6 promoter.
AhR, ARNT, hsp90 (wild-type, point mutants, and truncation mutants), p23, and XAP2 were generated (separately) by coupled transcription/translation in rabbit reticulocyte lysate (RRL) using the TNT® system according to the manufacturer's protocol (Promega, Madison Wis.). In this system, ^35S-methionine was included in the transcription/translation mix to generate ^35S-labeled protein.
Immobilized Metal Affinity Chromatography (IMAC) Purification of Histidine-Tagged XAP2. The TALON IMAC method was used for purification of XAP2 from RRL following a modified protocol (Clonetech). A 500 μL (50% slurry) of cobalt resin was washed at room temperature three times with TALON buffer (50 mM Na2PO4, 300 mM NaCl, pH 7.0) according to the manufacturer's protocol. A 175 μL aliquot of undiluted ^35S-XAP2 in RRL was added to a 15 ml conical tube containing the washed resin in TALON buffer for 20 minutes at room temperature end-over-end. […] Each aliquot was collected separately and analyzed for the presence of ^35S-XAP2 by SDS-PAGE followed by Phosphorimaging (PSI; Molecular Dynamics, Sunnyvale, Calif.). […]

`O=C(O[C@@H]1Cc2c(O)cc(O)cc2O[C@@H]1c1cc(O)c(O)c(O)c1)c1cc(O)c(O)c(O)c1` [EGCG, epigallocatechin gallate] was tested, and the “binding of XAP2 to EGCG-Sepharose” value (35S-XAP2 in RRL) was “eluted from EGCG-Sepharose”, the “binding of XAP2 to EGCG-Sepharose” value (Hepa cytosol) was “also eluted from EGCG-Sepharose” and the “binding of purified XAP2 to immobilized EGCG” value (His-purified XAP2, devoid of detectable hsp90) was “not specifically eluted from immobilized EGCG”. The “binding of purified XAP2 after reconstitution” value (His-purified XAP2 with purified hsp90 or RRL) was “restores XAP2 elution”.
